Source: PubChem BioAssay (NCI)
“And” between values parts separate entries of the source, which are not always exact repeats. Equal values may be shown once.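 Dose response: 5 concentrations. Exposure: 48 h. Format: 96-well plates. Endpoint: linear interpolation; highest concentration if not reached. Here, GI50 denotes the concentration required for 50% inhibition of growth. TGI: total growth inhibition.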

Key:
Assay in all cases: NCI anticancer screen, dose series, 48 h
CCRF-CEM leukemia = tested on: CCRF-CEM leukemia
COLO 205 colon = tested on: COLO 205 colon
HCT-116 colon = tested on: HCT-116 colon
HOP-62 NSCLC = tested on: HOP-62 NSCLC
HT29 colon = tested on: HT29 colon
MDA-MB-231 breast = tested on: MDA-MB-231 breast
NCI-H23 lung = tested on: NCI-H23 lung
UO-31 renal = tested on: UO-31 renal
NCI-H226 lung = tested on: NCI-H226 lung
HOP-92 NSCLC = tested on: HOP-92 NSCLC

Row | SMILES | TGI (CCRF-CEM leukemia) | TGI (COLO 205 colon) [µM] | TGI (HCT-116 colon) [µM] | TGI (HOP-62 NSCLC) [µM] | TGI (HT29 colon) [µM] | TGI (MDA-MB-231 breast) [µM] | TGI (NCI-H23 lung) [µM] | TGI (UO-31 renal) [µM] | TGI (NCI-H226 lung) | TGI (HOP-92 NSCLC) [µM] | GI50 (CCRF-CEM leukemia) [µM] | GI50 (COLO 205 colon) [µM] | GI50 (HT29 colon) [µM] | GI50 (HOP-62 NSCLC) [µM] | GI50 (NCI-H226 lung) [µM] | GI50 (NCI-H23 lung) [µM]
1 | CCOC(=O)C1(C/C=C/CBr)Cc2ccccc2C1=O (stereo unspecified) | 5.36 µM | 11.7 | 15.8 | 14.8 | 11.8 | 28.9 | 4.47 | 4.83 | – | – | – | – | – | – | – | –
2 | Cc1cc(Cc2cc(C)c(N)cc2N)c(N)cc1N | – | > 100 | > 100 | > 100 | > 100 | > 100 | > 100 | > 100 | > 100 µM | – | – | – | – | – | – | –
3 | Cc1n[nH]c(=O)n1/N=C/c1ccc(Cl)cc1 | 94.8 µM | > 100 | > 100 | > 100 | – | – | > 100 | > 100 | – | > 100 | – | – | – | – | – | –
4 | COC(=O)c1ccccc1CC1Cc2ccc3c(c2C1=O)CCCC3 (stereo unspecified) | > 86.5 µM | > 100 | > 100 | > 100 | > 100 | > 100 | > 100 | > 100 | > 100 µM | – | – | – | – | – | – | –
5 | CC(C)(C)N1CSC(=S)N(Cc2ccco2)C1 | 4.03 µM | 14.7 | 16.7 | 19.4 | 13.8 | – | 11.1 | 6.14 | 41.4 µM | 12.1 | – | – | – | – | – | –
6 | O=C(CCN1CCCCC1)C(=Cc1ccccc1)C(=O)CCN1CCCCC1 | 7.36 µM and 51.2 µM | > 76.4 | > 100 | > 100 | > 100 | – | > 100 | > 100 | > 100 µM | > 96.8 | 2.44 | 2.62 | 76.3 | – | – | –
7 | CC1(C)N=[N+]([O-])C1(C)C | > 100 µM | > 100 | > 100 | – | > 100 | > 100 | > 100 | > 100 | > 100 µM | – | – | – | – | – | – | –
8 | C=C(C)C(=O)OC1C/C(CO)=C\C(O)C/C(C)=C/C2OC(=O)C(=C)C21 (stereo unspecified) | 36.6 µM | 38.3 | 37.1 | > 100 | 34.1 | – | – | > 100 | 79.5 µM | 38.2 | – | – | – | – | – | –
9 | CCCCC#C[I+]c1ccccc1 | 24.4 µM | 28.7 | 30 | 37.6 | 32 | – | 27.3 | 30 | 30.7 µM | 24.1 | – | – | – | – | – | –
10 | Clc1ccccc1C(SCc1ccccc1)SCc1ccccc1 | > 100 µM | > 100 | > 100 | > 100 | > 100 | – | > 100 | > 100 | > 100 µM | > 100 | – | – | – | – | – | –
11 | CCC(C(=O)O)c1ccc(OC)cc1 (stereo unspecified) | > 100 µM | > 100 | > 100 | > 100 | > 100 | – | > 100 | > 100 | > 100 µM | > 100 | – | – | – | – | – | –
12 | O=[N+]([O-])c1ccc2c(c1)c(OCc1ccccc1)nn2Cc1ccccc1 | > 100 µM | – | – | > 100 | > 100 | > 100 | > 100 | > 100 | > 100 µM | – | – | – | – | – | – | –
13 | CCOC(=O)CSc1c(C(=O)OCC)c(=O)n(-c2ccccc2)c(=S)n1-c1ccccc1 | > 100 µM | > 100 | > 100 | > 100 | > 100 | – | > 100 | > 100 | > 100 µM | 20.6 | – | – | – | – | – | –
14 | COC(CCC[N+](C)(C)C)CC[N+](C)(C)C (stereo unspecified) | > 100 µM | > 100 | > 100 | > 100 | > 100 | – | > 100 | > 100 | > 100 µM | – | – | – | – | – | – | –
15 | Cc1c(O)c(O)cc[n+]1C1OC(CO)C(O)C1O (stereo unspecified) | > 100 µM | > 100 | > 100 | – | > 100 | – | > 100 | > 100 | > 100 µM | > 100 | – | – | – | – | – | –
16 | c1csc(-c2ccc(-c3cccc4nsnc34)s2)c1 | 69.3 µM | > 100 | > 100 | > 100 | – | > 100 | > 100 | > 100 | > 100 µM | – | – | – | – | – | – | –
17 | O=C(NC(=O)c1ccccc1[N+](=O)[O-])Nc1ccc(Oc2ncc(Br)cn2)c(Cl)c1 | – | 2.22 | – | – | 0.0568 | – | – | – | 0.0292 µM and < 0.0313 µM | – | < 0.0194 | < 0.0188 | – | 0.0454 | < 0.0175 | < 0.0209
18 | N#Cc1c(-c2ccccc2)/c(=C\Nc2cccc(C(F)(F)F)c2)c(=O)n2c1nc1ccccc12 | > 100 µM | > 100 | > 100 | > 100 | – | > 100 | > 100 | 22.1 | 80.9 µM | – | – | – | – | – | – | –
19 | COCO[C@@H]1C[C@H]2C(=O)Nc3ccccc3C(=O)N2C1 | – | > 100 | > 100 | 90.1 | > 100 | > 100 | > 100 | 74.5 | > 100 µM | – | – | – | – | – | – | –
20 | CC(C)CCS(=O)(=O)OCCCCOS(=O)(=O)CCC(C)C | > 100 µM | > 100 | > 100 | 26.9 | > 100 | – | > 100 | > 100 | > 100 µM | – | – | – | – | – | – | –
21 | COc1cc(C(=O)N(C(=S)OCc2ccccn2)c2ccccc2)cc(OC)c1OC | > 100 µM | > 100 | > 100 | – | > 100 | > 100 | > 100 | 86.5 | > 100 µM | – | – | – | – | – | – | –
